Results: article PMC5514948, “Stereochemical preference toward oncotarget: Design, synthesis and in vitro anticancer evaluation of diastereomeric β-lactams” (Oncotarget, 2017)
Values joined by “and” are separate entries in the source; they are usually repeats but may differ in a detail not shown here. Equal entries are not always repeated.

What was measured:
[1] = test system: SiHa (human cervical carcinoma) cells; test: Cytotoxic activity, WST-1 assay, SiHa; assay type: cell-based
Description: (§1) In vitro anticancer assays were performed in triplicate for the determination of mean values. The human cervical carcinoma SiHa, murine melanoma B16F10, chronic myelogenous leukemia (CML) K562, and Chang cell lines were cultured in minimum essential medium of Eagle at 37 °C in a […] atmosphere with 10% fetal bovine serum, 2 mM L-glutamine and 1% penicillin/streptomycin. Cells were trypsinized and seeded at a density of 5 × 10^4 cells/mL in a 96-well plate and incubated at 37 °C, […] atmosphere for 24 h. Thereafter the cells were treated with azetidin-2-one derivatives (dissolved in DMSO) at various concentrations between 312 nM–10 μM, and re-incubated for further 72 h. Wells containing the equal volume of the vehicle DMSO (1% v/v) were used as background (negative control). The culture medium was then removed and the cells washed with 100 μL phosphate buffered saline (PBS); then 10 μL WST-1 (Roche, USA) was added. Cells were incubated for 2 h in absence of light at 37°C, and absorbance was read subsequently. […] Afterwards, these values were used to assess half maximal inhibitory concentration (IC50) using Graph-Pad Prism software.

[2] = test system: K562 (human immortalized myelogenous leukemia) cells; test: Cytotoxic activity, WST-1 assay, K562; assay type: cell-based
Description: as §1

[3] = test system: Chang (normal liver) cells; test: cells; assay type: cell-based; conditions: 72 h, WST-1, triplicate
Description: as §1

[4] = test system: B16F10 (murine melanoma) cells; test: Cytotoxic activity, WST-1 assay, B16F10; assay type: cell-based
Description: as §1

SiHa cells = test: Hematoxylin/Eosin staining of SiHa cells; assay type: cell-based, human; conditions: 24 h, 6C 1 μM, taxol
Description: (§2) The cytotoxic effect of the compound 6C in SiHa and Chang cells has been studied (Figure 2).
(§3) Cells (10 × 10^4) were grown on coated poly-lysine coverslips which were placed in 6-well microplates overnight and then incubated for 24 h in the presence of compound 6C or taxol, subsequently stained with hematoxylin and eosin. Coverslips were then observed by Light microscopy of bright field (40X).

Chang cells = test: Hematoxylin/Eosin staining of Chang cells; assay type: cell-based; conditions: 24 h, 6C 1 μM, taxol
Description: as §2, §3

[5] = test system: caspase-3 activation in B16F10 cells; test: Apoptotic activity, caspase-3 assay; assay type: cell-based, murine; conditions: 24 h, podophyllotoxin as positive control
Description: The mechanism of cell death was identified as apoptosis. It was validated with the compound 6C. Enzyme activity associated with the induction of apoptosis was determined by caspase-3 assay (Invitrogen, USA) as described in the protocol. A concentration of approximately 3 × 10^6 cells/mL (B16F10) was taken and incubated for 24 h at 37 °C in 5% CO2 environment. Podophyllotoxin (apoptosis inducing agent) was used as positive control. After incubation for 24 h the cells were re-suspended and 50 μL of cell lysis reagent was added, then cells were incubated for 10 min in ice bath and centrifuged. The supernatant (cytosol extract) was transferred into a new effendrof. Cytosol extract was diluted with cell lysis reagent to a concentration of 2 μg/μL, in a total volume of 50 μL. Then 50 μL of 2X reaction buffer and 5 μL of tetrapeptide-p-nitroaniline (DEVD-pNA) were added. It was incubated at 37 °C for 2 h (in dark), and finally the optical density at 405 nm was measured with an ELISA Reader. Caspase-3 activity was calculated that confirmed apoptosis as the mechanism of cell death.

SMILES | IC50 ([1]; 72 h, WST-1, triplicate) | IC50 ([2]; 72 h, WST-1, triplicate) | IC50 [3] | IC50 ([4]; 72 h, WST-1, triplicate) | further results
COc1ccc([C@@H]2[C@H](N)C(=O)N2c2ccccc2)cc1 (racemic) [2C, (±)-Cis-3-amino-4-(4-methoxyphenyl)-1-phenyl-azetidin-2-one] | 6.2 ± 0.6 µM | > 10 µM | 8.03 ± 0.5 µM |  | 
Cc1ccc([C@@H]2[C@H](N)C(=O)N2c2ccccc2)cc1 (racemic) [6C, (±)-Cis-3-amino-1-phenyl-4-(p-tolyl) azetidin-2-one] | 2.34 ± 0.2 µM | > 10 µM | 6.89 ± 0.3 µM | 0.7 ± 0.1 µM | times higher potency than colchicine ([4]; B16F10 cell lines, compared to colchicine): six; Morphological effect, Hematoxylin/Eosin staining (SiHa cells): loss of cytoplasm and decrease in the size of nuclei; Morphological effect, Hematoxylin/Eosin staining (Chang cells): appearance of multiple intracytoplasmic vacuoles; Apoptosis through caspase-3 activation [5]: demonstrated apoptosis in B16F10 cancer cells through caspase-3 activation
Cc1ccc([C@H]2[C@H](N)C(=O)N2c2ccccc2)cc1 (racemic) [6T, (±)-Trans-3-amino-1-phenyl-4-(p-tolyl)azetidin-2-one] | 4.79 ± 0.6 µM | > 10 µM | > 10 µM | 5.79 ± 0.4 µM | 
COc1ccc(N2C(=O)[C@@H](N)[C@H]2c2ccccn2)cc1 (racemic) [7C, (±)-Cis-3-amino-1-(4-methoxyphenyl)-4-(2-pyridyl)azetidin-2-one] | 8.43 ± 0.3 µM | 6.86 ± 0.4 µM | 5.49 ± 0.4 µM | > 10 µM | 
CC(=O)O[C@H]1C(=O)[C@@]2(C)[C@H]([C@H](OC(=O)c3ccccc3)[C@]3(O)C[C@H](OC(=O)[C@H](O)[C@@H](NC(=O)c4ccccc4)c4ccccc4)C(C)=C1C3(C)C)[C@]1(OC(C)=O)CO[C@@H]1C[C@@H]2O [Paclitaxel, reference compound] |  |  | 0.068 ± 0.02 µM |  | IC50 ([1]; Homo sapiens, SiHa, value marked * (ng/mL)): 0.364 ± 0.31 µg/mL; IC50 ([4]; Mus musculus, B16-F10, 72 h, WST-1, triplicate): 9.57 ± 0.2 µM; IC50 ([2]; Homo sapiens, K562, value marked * (ng/mL)): 0.0048 ± 0.0004 µg/mL; Morphological effect, Hematoxylin/Eosin staining (SiHa cells): induced severe cell damage; Morphological effect, Hematoxylin/Eosin staining (Chang cells): early apoptosis
COc1ccc(N2C(=O)[C@@H](N)[C@H]2c2ccc(C)cc2)cc1 (racemic) [5C, (±)-Cis-3-amino-1-(4-methoxyphenyl)-4-(p-tolyl) azetidin-2-one] | 4.03 ± 0.5 µM | > 10 µM | 7.01 ± 0.1 µM |  | 
COc1ccc([C@@H]2[C@H](N)C(=O)N2c2ccc(OC)cc2)cc1 (racemic) [1C, (±)-Cis-3-amino-1,4-bis(4-methoxyphenyl) azetidin-2-one] | 4.21 ± 0.4 µM | > 10 µM | 6.21 ± 0.5 µM | 3.33 ± 0.3 µM | 
COc1ccc([C@H]2[C@H](N)C(=O)N2c2ccccc2)cc1 (racemic) [2T, (±)-Trans-3-amino-4-(4-methoxyphenyl)-1-phenyl-azetidin-2-one] | 7.14 ± 0.5 µM | > 10 µM | > 10 µM | 7.63 ± 0.4 µM | 
COc1ccc(N2C(=O)[C@@H](N)[C@@H]2c2ccccn2)cc1 (racemic) [7T, (±)-Trans-3-amino-1-(4-methoxyphenyl)-4-(2-pyridyl)azetidin-2-one] | > 10 µM | > 10 µM | > 10 µM | > 10 µM | 
COc1ccc([C@H]2[C@H](N)C(=O)N2c2ccc(OC)cc2)cc1 (racemic) [1T, (±)-Trans-3-amino-1,4-bis(4-methoxyphenyl) azetidin-2-one] | 7.17 ± 0.3 µM | > 10 µM | 7.91 ± 0.4 µM | 5.16 ± 0.5 µM | 
COc1ccc(N2C(=O)[C@@H](N)[C@@H]2c2ccc(C)cc2)cc1 (racemic) [5T, (±)-Trans-3-amino-1-(4-methoxyphenyl)-4-(p-tolyl)azetidin-2-one] | 7.79 ± 0.5 µM | > 10 µM | > 10 µM | 7.14 ± 0.6 µM | 
CC[C@]1(O)C[C@@H]2CN(CCc3c([nH]c4ccccc34)[C@@](C(=O)OC)(c3cc4c(cc3OC)N(C)[C@H]3[C@@](O)(C(=O)OC)[C@H](OC(C)=O)[C@]5(CC)C=CCN6CC[C@]43[C@@H]65)C2)C1 [Vinblastine, reference compound] |  |  |  |  | IC50 ([1]; Homo sapiens, SiHa, 72 h, WST-1, triplicate): 10.9 ± 0.8 µM; IC50 ([4]; Mus musculus, B16-F10, value marked * (ng/mL)): 0.055 ± 0.028 µg/mL; IC50 ([2]; Homo sapiens, K562, 72 h, WST-1, triplicate): 0.006 µM
COc1ccc(N2C(=O)[C@@H](N)[C@@H]2c2ccccc2[N+](=O)[O-])cc1 (racemic) [4T, (±)-Trans-3-amino-1-(4-methoxyphenyl)-4-(2-nitrophenyl) azetidin-2-one] | 8.12 ± 0.4 µM | > 10 µM | > 10 µM | > 10 µM | 
COc1ccc(N2C(=O)[C@@H](N)[C@@H]2c2ccc(OC)c(OC)c2)cc1 (racemic) [3T, (±)-Trans-3-amino-4-(3,4-dimethoxyphenyl)-1-(4-methoxyphenyl) azetidin-2-one] | > 10 µM | > 10 µM | > 10 µM | > 10 µM | 
COc1ccc(N2C(=O)[C@@H](N)[C@H]2c2ccc(OC)c(OC)c2)cc1 (racemic) [3C, (±)-Cis-3-amino-4-(3,4-dimethoxyphenyl)-1-(4-methoxyphenyl) azetidin-2-one] | 5.1 ± 0.4 µM | 6.14 ± 0.4 µM | 9.32 ± 0.6 µM | < 5 µM and 3.91 µM | 
COc1ccc(N2C(=O)[C@@H](N)[C@H]2c2ccccc2[N+](=O)[O-])cc1 (racemic) [4C, (±)-Cis-3-amino-1-(4-methoxyphenyl)-4-(2-nitrophenyl) azetidin-2-one] | 7.28 ± 0.5 µM | > 10 µM | 7.37 ± 0.4 µM | 5.91 ± 0.6 µM | 
